Measurements published in patent EP4725957A1, “GROUP OF CYCLIC ALKALINE LIPOPEPTIDE COMPOUNDS, AND PREPARATION METHOD THEREFOR AND USE THEREOF” (Institute of Medicinal Biotechnology, Chinese Academy of …, priority 2023, dated 2024).
Converted amounts (≈) assume the structure as drawn. Bridge positions count the residues as written; N and C are the ends. Square brackets hold non-standard residues; d marks the D form. Peptide text beside a SMILES is read from it. * marks the point of attachment. Heptanoyl(6-Me) = CC(C)CCCCC(=O)*; dOrn = NCCC[C@@H](N)C(=O)O; Nonanoyl = CCCCCCCCC(=O)*; Orn = NCCC[C@H](N)C(=O)O; Dab = NCC[C@H](N)C(=O)O; Dap = NC[C@H](N)C(=O)O

How the values were obtained:
Format in all cases: cell-based
[1] = system: Acinetobacter baumannii ABA19-1; details: ABA19-1
Protocol: (§1) The minimal inhibitory concentration (MIC) was determined by the broth microdilution method according to the recommended procedures of the Clinical and Laboratory Standards Institute (CLSI).
(§2) An appropriate amount of the cyclic lipopeptide compounds prepared in Examples 1-120 and the reference standards were weighed and dissolved in sterile pure water. An appropriate volume of the mother solution was subjected to ten-fold dilution with sterile Mueller-Hinton (MH) broth to a concentration of 0.256 mg/mL. Half of the drug solution was aliquoted into 96-well reagent reservoirs, while the other half was subjected to two-fold serial dilution with sterile MH broth before being transferred into deep-well reagent reservoirs. The above steps were repeated, so that the drug concentrations in the reagent reservoirs were adjusted to 128, 64, 32, 16, 8, 4, 2, 1, 0.5, 0.25, 0.125 and 0.06 mg/L in sequence, and all solutions were prepared and used immediately. Several colonies were picked from agar plates cultured for 18-24 h and directly suspended in sterile normal saline, and the concentration of the bacterial suspension was adjusted to 0.5 McFarland units. The calibrated bacterial suspension was diluted with MH broth to a concentration of (4-8) × 10^5 colony-forming units per milliliter (CFU/mL) and prepared and used immediately. A volume of 100 µL of the aforementioned compounds of the present disclosure (e.g., the compounds prepared in the examples) and reference solutions at different concentrations was separately pipetted into wells 1 to 12 of sterile 96-well polystyrene plates, and an additional 100 µL of the aforementioned inoculum was added to each well. The final concentrations of the samples in the wells were adjusted to 64, 32, 16, 8, 4, 2, 1, 0.5, 0.25, 0.125, 0.06 and 0.03 mg/L, respectively, and the final concentration of the inoculum in each well was (2-4) × 10^5 CFU/mL. Additional growth control wells were set up, each containing 100 µL of the inoculum and 100 µL of sterile MH broth. The test substances and inocula in all wells were mixed thoroughly and then sealed. The inoculated 96-well plates were incubated in an incubator at 35-37°C for 16-20 h.
(§3) The strains used for the antibacterial activity assay were obtained from the American Type Culture Collection (ATCC) and clinical isolates.
(§4) The strains employed for the antibacterial activity assay included Escherichia coli ATCC BAA-2523, ATCC BAA-2340 (KPC), Klebsiella pneumoniae KPN+19-15, ATCC BAA-1705 (KPC), Pseudomonas aeruginosa PAE19-3, ATCC 27853, Acinetobacter baumannii ABA19-1, and NCTC 13304 (OXA-27).

[2] = system: Acinetobacter baumannii NCTC 13304 (OXA-27); details: NCTC 13304
Protocol: as §1, §2, §3, §4

[3] = system: Escherichia coli ATCC BAA-2340 (KPC); details: ATCC BAA-2340
Protocol: as §1, §2, §3, §4

[4] = system: Escherichia coli ATCC BAA-2523; details: ATCC BAA-2523
Protocol: as §1, §2, §3, §4

[5] = system: Klebsiella pneumoniae ATCC BAA-1705 (KPC); details: ATCC BAA-1705
Protocol: as §1, §2, §3, §4

[6] = system: Klebsiella pneumoniae KPN+19-15; details: KPN+19-15
Protocol: as §1, §2, §3, §4

[7] = system: Pseudomonas aeruginosa ATCC 27853; details: ATCC 27853
Protocol: as §1, §2, §3, §4

[8] = system: Pseudomonas aeruginosa PAE19-3; details: PAE19-3
Protocol: as §1, §2, §3, §4

[9] = Nephrotoxicity assay: in vitro cytotoxicity of HK-2 cells by CCK-8 assay; details: human, HK-2 cells (human renal), 72 h incubation with drug-containing medium
Protocol: In vitro cytotoxicity detection of HK-2 cells was performed by the CCK-8 assay.
The culture medium for human renal HK-2 cells was a complete RPMI-1640 medium (Invitrogen) supplemented with 10% fetal bovine serum (FBS, Gibco). The cryopreservation solution was composed of 90% FBS and 10% dimethyl sulfoxide (DMSO), and the cells were preserved long-term in liquid nitrogen. Cells were cultured in a sterile incubator with a humidified atmosphere containing 5% CO2 at 37°C. When the cell density reached 70%-80%, cell digestion and subculture were conducted. The cyclic lipopeptide compounds prepared in Examples 1-120 were weighed and dissolved in sterile water to prepare a mother solution with a concentration of 1 mg/mL. Drug-containing culture media were then formulated, with the final concentrations set as 500, 250, 200, 100, 50, 25, and 12.5 µg/mL, respectively. Cells were adjusted to a density of 5 × 10^4 cells/mL and seeded into 96-well plates, with 100 µL of cell suspension added to each well. After stable incubation for 24 h, the original medium was replaced with the prepared drug-containing medium, and the plates were incubated in the incubator for an additional 72 h. The medium was gently aspirated, and 100 µL of blank medium containing 10% CCK-8 was added to each well. After incubation in the incubator for 3 h, the optical density (OD) values at 450 nm were measured using a BIOTEK microplate reader. The experiment was repeated three times. For each replicate, polymyxin B was set as the positive drug, and a drug-free blank group was established as the control. The cell viability (%) was calculated by the formula: Cell viability (%) = [(OD of drug-treated group - OD of zero-setting) / (OD of drug-free group - OD of zero-setting)] × 100%. The half-maximal inhibitory concentration (IC50) values were calculated through logarithmic regression analysis.
The cells used for the nephrotoxicity assay were obtained from the ATCC ( American Type Culture Collection). The Cell Counting Kit-8 (CCK-8) used in the assay was supplied by Beyotime Biotechnology Co., Ltd.

Row | Structure (SMILES) | MIC [1] [µg/mL] | MIC [2] [µg/mL] | MIC [3] [µg/mL] | MIC [4] [µg/mL] | MIC [5] [µg/mL] | MIC [6] [µg/mL] | MIC [7] [µg/mL] | MIC [8] [µg/mL] | IC50 at 72 h [9] [µg/mL]
1 | CCCCCCCCC(=O)N[C@@H](CCN)C(=O)N[C@H](C(=O)N[C@H](CCCN)C(=O)N[C@H]1CCNC(=O)[C@H]([C@@H](C)O)NC(=O)[C@H](CCN)NC(=O)[C@H](CCN)NC(=O)[C@H]([C@@H](C)O)NC(=O)[C@@H](Cc2ccccc2)NC(=O)[C@H](CCN)NC1=O)[C@@H](C)O [Compound 25, Nonanoyl-Dab-Thr-D-Orn-ring(4-10)[Dab-Dab-D-Phe-Thr-Dab-Dab-Thr]] (Nonanoyl-[Dab]T[dOrn][Dab][Dab][dF]T[Dab][Dab]T; lactam 4-C) | 0.125 (≈ 0.104 µM) | 0.06 (≈ 0.0498 µM) | ≤0.03 | ≤0.03 | 0.06 (≈ 0.0498 µM) | 0.125 (≈ 0.104 µM) | 0.5 (≈ 0.415 µM) | 2 (≈ 1.66 µM) | 338 ± 15.1 (≈ 280 µM)
2 | CCCCCCCCC(=O)N[C@@H](CCN)C(=O)N[C@H](C(=O)N[C@H](CO)C(=O)N[C@H]1CCNC(=O)[C@H]([C@@H](C)O)NC(=O)[C@H](CCN)NC(=O)[C@H](CN)NC(=O)[C@H]([C@@H](C)O)NC(=O)[C@@H](Cc2ccccc2)NC(=O)[C@H](CCN)NC1=O)[C@@H](C)O [Compound 75, Nonanoyl-Dab-Thr-D-Ser-ring(4-10)[Dab-Dab-D-Phe-Thr-Dap-Dab-Thr]] (Nonanoyl-[Dab]T[dS][Dab][Dab][dF]T[Dap][Dab]T; lactam 4-C) | 0.06 (≈ 0.0515 µM) | 0.03 (≈ 0.0258 µM) | 0.06 (≈ 0.0515 µM) | 0.06 (≈ 0.0515 µM) | 0.25 (≈ 0.215 µM) | 0.5 (≈ 0.429 µM) | >64 | 64 (≈ 55 µM) | 310 ± 19.8 (≈ 266 µM)
3 | CCCCCCCCC(=O)N[C@@H](CCN)C(=O)N[C@H](C(=O)N[C@H](CCCN)C(=O)N[C@H]1CCNC(=O)[C@H]([C@@H](C)O)NC(=O)[C@H](CCN)NC(=O)[C@H](CCN)NC(=O)[C@H](CC(C)C)NC(=O)[C@@H](Cc2ccccc2)NC(=O)[C@H](CCN)NC1=O)[C@@H](C)O [Compound 45, Nonanoyl-Dab-Thr-D-Orn-ring(4-10)[Dab-Dab-D-Phe-Leu-Dab-Dab-Thr]] (Nonanoyl-[Dab]T[dOrn][Dab][Dab][dF]L[Dab][Dab]T; lactam 4-C) | 0.125 (≈ 0.103 µM) | 0.06 (≈ 0.0493 µM) | 0.06 (≈ 0.0493 µM) | 0.06 (≈ 0.0493 µM) | 0.06 (≈ 0.0493 µM) | 0.125 (≈ 0.103 µM) | 0.5 (≈ 0.411 µM) | 2 (≈ 1.64 µM) | 139 ± 6.7 (≈ 114 µM)
4 | CC(C)CCCCC(=O)N[C@@H](CCN)C(=O)N[C@H](C(=O)N[C@@H](CCCN)C(=O)N[C@H]1CCNC(=O)[C@H]([C@@H](C)O)NC(=O)[C@H](CCN)NC(=O)[C@H](CCN)NC(=O)[C@H]([C@@H](C)O)NC(=O)[C@@H](Cc2ccccc2)NC(=O)[C@H](CCN)NC1=O)[C@@H](C)O [Compound 27, 6-methylheptanoyl-Dab-Thr-Orn-ring(4-10)[Dab-Dab-D-Phe-Thr-Dab-Dab-Thr]] ({Heptanoyl(6-Me)}-[Dab]T[Orn][Dab][Dab][dF]T[Dab][Dab]T; lactam 4-C) | 0.125 (≈ 0.105 µM) | 0.06 (≈ 0.0504 µM) | ≤0.03 | ≤0.03 | ≤0.03 | ≤0.03 | ≤0.03 | 0.25 (≈ 0.21 µM) | > 500
